Experimental data as given in US20030044872A1, “Means of stabilizing compositions and reagents” (priority 1999, published 2003).
Read-outs that look alike come from different tables or passages of the source.

Columns and labels:
[1] = Insoluble precipitation after storage of absorbed plasma mixture with various substances (Example 4); format: physicochemical, bovine; settings: storage 24 hours at 10° C. Note: key: +: Yes; −: No.
Experimental: (§1) To 100 ml of bovine plasma, barium sulfate in 20 w/v % was added. The mixture was mixed for 30 minutes at room temperature, and stirred slowly. Subsequently, the mixture was centrifuged at 5,000×g to remove the barium sulfate precipitate, and absorbed plasma was prepared by adding in the supernatant, and was mixed with 1 ml of N-ethylmaleimide, as inhibitor for Factor XIII. In other words, the composition prepared, contained at least Factor V and fibrinogen. Beside these, the absorbed plasma, without containing 1 mL of N-ethylmaleimide, was prepared and used, as a control.
(§2) Separately, one volume of the absorbed plasma and one volume of 20 mM Hepes-Tris buffer solution (pH 7.0), in which 10 mM of calcium lactate was added, were mixed together to prepare the solution. To the solution, each of substance, stated in Table 1 as below, was added so that mixture might show such a concentration as mentioned in the Table 1. With these mixtures, the inhibiting rate for factor XIII, and a producing rate of the insoluble matter after storage for 24 hours at 10° C. were measured.

[2] = system: factor XIII; test: Inhibiting for factor XIII in absorbed plasma/calcium lactate buffer mixture (Example 4); format: biochemical, bovine; note: key: +: Yes; −: No
Experimental: as §1, §2

[3] = Stabilizing effect of 1:1 mixtures of NEM with other inhibitors, procedures of Examples 5 to 8 (Example 9); format: physicochemical, bovine
Excerpt: The procedures stated in the Examples 5 to 8 were repeatedly carried out using the mixtures of NEM with monochloroamide, acrylamide, glycinamide, and dithioprydine, as an inhibiting agent, in an amount of 1:1, as other representative examples.

[4] = Influence of N-ethylmaleimide concentration on insoluble precipitation, visually detected (Example 5); format: physicochemical, bovine; set-up: key: +: Insoluble Precipitation; ±: Slightly insoluble precipitation; −: No insoluble precipitate
Experimental: To 100 ml of bovine plasma, barium sulfate in 20 w/v % was added. The mixture was mixed for 30 minutes at room temperature, and stirred slowly. Subsequently, the mixture was centrifuged at 5,000×g to remove the barium sulfate precipitate, and absorbed plasma was prepared by adding in the supernatant, and was mixed with 1 ml of N-ethylmaleimide, as inhibitor for Factor XIII. In other words, the composition prepared, contained at least Factor V and fibrinogen. Beside these, the absorbed plasma, without containing 1 mL of N-ethylmaleimide, was prepared and used, as a control. The absorbed plasma was prepared in the same manner as stated in the Example 2, except that a concentration of N-ethylmaleimide was varied. Separately, one volume of the absorbed plasma and one volume of 20 mM Hepes-Tris buffer solution (pH 7.0), in which 10 mM of calcium lactate was added, were mixed together to prepare the solution, for which a producing rate of the insoluble matter was visually detected both after storing 24 hours at 10° C., and right after freeze-thawed at −20° C. As clearly seen in the Table 2, it has been cleared that N-ethylmaleimide may inhibit insoluble precipitation even with adding 1 mM concentration, however, more preferably 1 mM to 10 mM.

[5] = system: commercially available control plasma; test: Reagent performance: coagulation activity / clotting time of control plasma on blood coagulation analyzer Coagre (Example 8); format: biochemical; settings: reagent with NEM added
Experimental: In order to confirm the performance of each reagent, prepared in the Example 8, the performance was evaluated using Blood coagulation analyzer, Coagre (manufactured by Shimazu, Co., Japan) by measuring clotting time with commercially available control plasma. The performance and stability of the reagent evaluated by using the reagents, prepared and preserved for several days at 10° C., to obtain plasma coagulation activity of control plasma. As clearly seen in the Table 5, clotting time was not varied even adding NEM.

[6] = Insoluble precipitation in three adsorbed plasmas with N-ethylmaleimide (Example 6); format: physicochemical, bovine; set-up: key: +: Insoluble precipitation; −: No insoluble precipitation; settings: NEM (+)
Experimental: To 100 ml of bovine plasma, barium sulfate in 20 w/v % was added. The mixture was mixed for 30 minutes at room temperature, and stirred slowly. Subsequently, the mixture was centrifuged at 5,000×g to remove the barium sulfate precipitate, and absorbed plasma was prepared by adding in the supernatant, and was mixed with 1 ml of N-ethylmaleimide, as inhibitor for Factor XIII. In other words, the composition prepared, contained at least Factor V and fibrinogen. Beside these, the absorbed plasma, without containing 1 mL of N-ethylmaleimide, was prepared and used, as a control. To study the effect of the present invention, one volume of three types absorbed plasma, prepared in the Example 2 and one volume of 20 mM Hepes-Trisbuffersolution were mixed together, and visually detected both after storing 24 hours at 10° C., and right after freeze-thawed at […]. As clearly seen in the Table 3, none of the adsorbed plasma mixed with N-ethylmaleimide observed the insoluble precipitation, neither in storing at 10° C. or after freeze-thawed treatment. […] Thus, it has become clear that the insoluble precipitation can be inhibited by adding N-ethylmaleimide.

[7] = substance 1 mM in absorbed plasma + Hepes-Tris/calcium lactate
[8] = mixture of NEM with the inhibitor 1:1, procedures of Examples 5 to 8

**Q.** Which Precipitation ([1]; substance 1 mM) does the source give for `CN(C)c1c([N+](=O)[O-])cc(N2C(=O)C=CC2=O)cc1[N+](=O)[O-]` [N-(4-dimethylamino-3,5-dinitrophenyl) maleimide] here?
**A.** The Precipitation was “−”.

**Q.** And the “Inhibiting for factor XIII” value [2, 7]?
**A.** Its value is “+”.

**Q.** With monochloroamide as the molecule, how does the “stabilizing effect compared with NEM” value [3, 8] read?
**A.** Its value is “equal or slightly inferior to NEM”.

**Q.** Which “Inhibiting for factor XIII” value ([2]; substance 10 mM in absorbed plasma + Hepes-Tris/calcium lactate) does the source give for `[Cl-].[Na+]` [NaCl] here?
**A.** The value was “−”.

**Q.** Which results are given for `CCN1C(=O)C=CC1=O` [N-ethylmaleimide]?
**A.** Precipitation ([1]; substance 1 mM): −; Inhibiting for factor XIII [2, 7]: +; Insoluble precipitation ([4]; 0.1 mM, Bovine plasma 1, 24 hours at 10° C.): ±; Insoluble precipitation ([4]; 0.1 mM, Bovine plasma 1, freeze-thawed at −20° C.): +; Insoluble precipitation ([4]; 0.1 mM, Bovine plasma 2, 24 hours at 10° C.): ±; Insoluble precipitation ([4]; 0.1 mM, Bovine plasma 2, freeze-thawed at −20° C.): +; Insoluble precipitation ([4]; 1 mM, Bovine plasma 1, 24 hours at 10° C.): −; Insoluble precipitation ([4]; 1 mM, Bovine plasma 1, freeze-thawed at −20° C.): −; Insoluble precipitation ([4]; 1 mM, Bovine plasma 2, 24 hours at 10° C.): −; Insoluble precipitation ([4]; 1 mM, Bovine plasma 2, freeze-thawed at −20° C.): −; Insoluble precipitation ([4]; 2 mM, Bovine plasma 1, 24 hours at 10° C.): −; Insoluble precipitation ([4]; 2 mM, Bovine plasma 1, freeze-thawed at −20° C.): −; Insoluble precipitation ([4]; 2 mM, Bovine plasma 2, 24 hours at 10° C.): −; Insoluble precipitation ([4]; 2 mM, Bovine plasma 2, freeze-thawed at −20° C.): −; Insoluble precipitation ([4]; 5 mM, Bovine plasma 1, 24 hours at 10° C.): −; Insoluble precipitation ([4]; 5 mM, Bovine plasma 1, freeze-thawed at −20° C.): −; Insoluble precipitation ([4]; 5 mM, Bovine plasma 2, 24 hours at 10° C.): −; Insoluble precipitation ([4]; 5 mM, Bovine plasma 2, freeze-thawed at −20° C.): −; Insoluble precipitation ([4]; 10 mM, Bovine plasma 1, 24 hours at 10° C.): −; Insoluble precipitation ([4]; 10 mM, Bovine plasma 1, freeze-thawed at −20° C.): −; Insoluble precipitation ([4]; 10 mM, Bovine plasma 2, 24 hours at 10° C.): −; Insoluble precipitation ([4]; 10 mM, Bovine plasma 2, freeze-thawed at −20° C.): −; clotting time [5]: not varied; Insoluble precipitation ([6]; Adsorbed plasma 1, Storage after freeze-thawing at −20° C.): −; Insoluble precipitation ([6]; Adsorbed plasma 1, Storage at 10° C.): −; Insoluble precipitation ([6]; Adsorbed plasma 2, Storage after freeze-thawing at −20° C.): −; Insoluble precipitation ([6]; Adsorbed plasma 2, Storage at 10° C.): −; Insoluble precipitation ([6]; Adsorbed plasma 3, Storage after freeze-thawing at −20° C.): −; Insoluble precipitation ([6]; Adsorbed plasma 3, Storage at 10° C.): −

**Q.** With “Bovine serum albumin: Bovine serum albumin, comparison substance added at 1%” as the molecule, how does the Precipitation ([1]; substance 1%) read?
**A.** Its Precipitation is “+”.

**Q.** What about the “Inhibiting for factor XIII” value ([2]; substance 1% in absorbed plasma + Hepes-Tris/calcium lactate) of the same molecule?
**A.** The value was “−”.

**Q.** Which results are given for `O=C(O)CI` [Monoiodo acetic acid]?
**A.** Precipitation ([1]; substance 1 mM): −; Inhibiting for factor XIII [2, 7]: +

**Q.** For `OC[C@H]1O[C@@](CO)(O[C@H]2O[C@H](CO)[C@@H](O)[C@H](O)[C@H]2O)[C@@H](O)[C@@H]1O` [Sucrose], which Precipitation ([1]; substance 5%) is on record?
**A.** Its Precipitation is “+”.

**Q.** What about the “Inhibiting for factor XIII” value ([2]; substance 5% in absorbed plasma + Hepes-Tris/calcium lactate) of the same molecule?
**A.** The value was “−”.

**Q.** With `C=CC(N)=O` [acrylamide] as the molecule, how does the “stabilizing effect compared with NEM” value [3, 8] read?
**A.** Its value is “equal or slightly inferior to NEM”.

**Q.** Which “stabilizing effect compared with NEM” value [3] does the source give for dithioprydine here?
**A.** Its value is “equal or slightly inferior to NEM”.

**Q.** Which “stabilizing effect compared with NEM” value [3] does the source give for `NCC(N)=O` [glycinamide] here?
**A.** Its value is “equal or slightly inferior to NEM”.
